Experimental data taken from US7790742B2, “Substituted 4-phenyltetrahydroisoquinolines, pharmaceutical compositions thereof, methods for their preparation and therapeutic use” (Sanofi-Aventis Deutschland GmbH, priority 2004, dated 2010).

Key:
[1] = target: T1, NHE3 (Homo sapiens, UniProt P48764); assay: Determination of the NHE-inhibitory effect (recovery of intracellular pH after acidification, BCECF); type: cell-based; settings: BCECF fluorescence, NHE subtype not given
T1 construct: host or cells: cells, not specified
T1 sequence (P48764 26-834): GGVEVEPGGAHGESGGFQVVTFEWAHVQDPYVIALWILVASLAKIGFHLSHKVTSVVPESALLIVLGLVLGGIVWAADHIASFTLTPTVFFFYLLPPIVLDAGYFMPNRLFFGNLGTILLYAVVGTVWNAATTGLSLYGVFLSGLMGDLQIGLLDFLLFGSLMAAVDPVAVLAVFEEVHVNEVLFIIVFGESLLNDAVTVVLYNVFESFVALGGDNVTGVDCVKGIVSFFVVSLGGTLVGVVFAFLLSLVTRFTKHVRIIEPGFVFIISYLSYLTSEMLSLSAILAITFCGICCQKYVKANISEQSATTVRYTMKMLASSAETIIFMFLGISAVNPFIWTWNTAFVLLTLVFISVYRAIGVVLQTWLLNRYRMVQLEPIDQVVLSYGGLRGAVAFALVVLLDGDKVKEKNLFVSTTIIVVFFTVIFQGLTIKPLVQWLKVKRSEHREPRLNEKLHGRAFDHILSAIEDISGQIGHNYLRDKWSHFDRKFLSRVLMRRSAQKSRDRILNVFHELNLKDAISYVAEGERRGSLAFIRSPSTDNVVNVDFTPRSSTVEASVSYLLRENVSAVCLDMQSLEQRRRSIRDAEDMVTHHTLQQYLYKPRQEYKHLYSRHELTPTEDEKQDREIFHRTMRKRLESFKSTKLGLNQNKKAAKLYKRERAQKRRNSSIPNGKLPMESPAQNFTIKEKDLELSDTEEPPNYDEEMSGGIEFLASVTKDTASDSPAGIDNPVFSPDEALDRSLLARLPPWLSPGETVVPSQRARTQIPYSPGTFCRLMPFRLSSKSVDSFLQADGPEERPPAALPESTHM
Procedure: [drawing 82] was obtained in analogy to the method indicated in Example 16 from 6,8-dichloro-2-methyl-4(R)-[2N-(2-ethoxy-3,4-dioxocyclobuten-1-yl)amino]-phenyl-1,2,3,4-tetrahydroisoquinoline (Example 6) and methylamine. Crystalline solid, m.p. 265° C. Pharmacological Data: Assay: Determination of the NHE-Inhibitory Effect
In this assay, the recovery of the intracellular pH (pHj) after an acidification which occurs even under bicarbonate-free conditions with functional NHE was determined. To this end, the pHj was determined using the pH-sensitive fluorescent dye BCECF (calbiochem, the precursor BCECF-AM was employed). The cells were initially loaded with BCECF. The BCECF fluorescence was determined in a ratio fluorescence spectrometer (Photon Technology International, South Brunswick, N.J., USA) with excitation wavelengths of 505 and 440 nm and an emission wavelength of 535 nm and converted into the pHj using calibration plots. The cells had been incubated in NH4Cl buffer (pH 7.4) for the BCECF loading (NH4Cl buffer: 115 mM NaCl, 20 mM NH4Cl, 5 mM KCl, 1 mM CaCl2, 1 mM MgSO4, 20 mM Hepes, 5 mM glucose, 1 mg/ml BSA; a pH of 7.4 was adjusted with 1 M NaOH). The intracellular acidification was induced by adding 975 μl of an NH4Cl-free buffer (see below) to 25 μl aliquots of the cells incubated in NH4Cl buffer. The subsequent rate of pH recovery was recorded for two minutes with NHE1, five minutes with NHE2 and three minutes with NHE3. To calculate the inhibitory power of the tested substances, the cells were initially investigated in buffers with which there was complete or absolutely no pH recovery. For complete pH recovery (100%), the cells were incubated in Na^+-containing buffer (133.8 mM NaCl, 4.7 mM KCl, 1.25 mM CaCl2, 1.25 mM MgCl2, 0.97 mM Na2HPO4, 0.23 mM NaH2PO4, 5 mM Hepes, 5 mM glucose, a pH of 7.0 was adjusted with 1 M NaOH). To determine the 0% value, the cells were incubated in an Na^+-free buffer (133.8 mM choline chloride, 4.7 mM KCl, 1.25 mM CaCl2, 1.25 mM MgCl2, 0.97 mM K2HPO4, 0.23 mM KH2PO4, 5 mM Hepes, 5 mM glucose, a pH of 7.0 was adjusted with 1 M NaOH). The substances to be tested were made up in the Na^+-containing buffer. The recovery of the intracellular pH at each tested concentration of a substance was expressed as a percentage of the maximum recovery. The IC50 of the respective substance for the individual NHE subtypes was calculated from the percentages of pH recovery using the Sigma Plot program.

| Structure (SMILES) | IC50 [1] | melting point |
| --- | --- | --- |
| CN1Cc2c(Cl)cc(Cl)cc2C(c2ccc(Nc3c(N(C)C)c(=O)c3=O)cc2)C1 (stereo not shown) [Example 18, 6,8-dichloro-2-methyl-4-[4N-(2-dimethylamino-3,4-dioxocyclobuten-1-yl)amino]phenyl-1,2,3,4-tetrahydroisoquinoline] | 260 nM | 208 to 214 °C |
| CCN(CC)c1c(Nc2ccc(C3CN(C)Cc4c(Cl)cc(Cl)cc43)cc2)c(=O)c1=O (stereo not shown) [Example 19, 6,8-dichloro-2-methyl-4-[4N-(2-diethylamino-3,4-dioxocyclobuten-1-yl)amino]phenyl-1,2,3,4-tetrahydroisoquinoline] | 1150 nM | 275 to 280 °C |
| CN1Cc2c(Cl)cc(Cl)cc2[C@H](c2cccc(Nc3c(N(C)C)c(=O)c3=O)c2)C1 [Example 22, 6,8-dichloro-2-methyl-4(S)-[3N-(2-dimethylamino-3,4-dioxocyclobuten-1-yl)amino]phenyl-1,2,3,4-tetrahydroisoquinoline] | 98.5 nM |  |
| CCCN(CCC)c1c(Nc2ccc(C3CN(C)Cc4c(Cl)cc(Cl)cc43)cc2)c(=O)c1=O (stereo not shown) [Example 24, 6,8-dichloro-2-methyl-4-[4N-(2-dipropylamino-3,4-dioxocyclobuten-1-yl)amino]phenyl-1,2,3,4-tetrahydroisoquinoline] | 2490 nM |  |
| CC(C)CN(C)c1c(Nc2ccc(C3CN(C)Cc4c(Cl)cc(Cl)cc43)cc2)c(=O)c1=O (stereo not shown) [Example 25, 6,8-dichloro-2-methyl-4-[4N-(2-(N-isobutyl-N-methylamino)-3,4-dioxocyclobuten-1-yl)amino]phenyl-1,2,3,4-tetrahydroisoquinoline] | 2810 nM | > 310 °C |
| COCCN(C)c1c(Nc2ccc(C3CN(C)Cc4c(Cl)cc(Cl)cc43)cc2)c(=O)c1=O (stereo not shown) [Example 26] | 1700 nM | 206 to 210 °C |
| CCN(CC)c1c(Nc2ccc([C@@H]3CN(C)Cc4c(Cl)cc(Cl)cc43)cc2)c(=O)c1=O [Example 27, 6,8-dichloro-2-methyl-4(S)-[4N-(2-diethylamino-3,4-dioxocyclobuten-1-yl)amino]phenyl-1,2,3,4-tetrahydroisoquinoline] | 210 nM | 220 to 225 °C |
| CC(C)N(C)c1c(Nc2ccc([C@@H]3CN(C)Cc4c(Cl)cc(Cl)cc43)cc2)c(=O)c1=O [Example 28, 6,8-dichloro-2-methyl-4(S)-[4N-(2-(N-isopropyl-N-methylamino)-3,4-dioxocylcobuten-1-yl)amino]phenyl-1,2,3,4-tetrahydroisoquinoline] | 260 nM | 165 to 175 °C (dec.) |
| CCCN(CC1CC1)c1c(Nc2ccc(C3CN(C)Cc4c(Cl)cc(Cl)cc43)cc2)c(=O)c1=O (stereo not shown) [Example 29, 6,8-dichloro-2-methyl-4-[4N-(2-(N-cyclopropylmethyl-N-propylamino)-3,4-dioxocyclobuten-1-yl)amino]phenyl-1,2,3,4-tetrahydro-isoquinoline] | 7140 nM | 134 to 144 °C |
| CCN(CC)c1c(Nc2cccc([C@@H]3CN(C)Cc4c(Cl)cc(Cl)cc43)c2)c(=O)c1=O [Example 30] | 140 nM | 125 to 135 °C |
| CC(C)N(C)c1c(Nc2cccc([C@@H]3CN(C)Cc4c(Cl)cc(Cl)cc43)c2)c(=O)c1=O [Example 31] | 130 nM | 135 to 150 °C |
| CCN(c1c(Nc2ccc([C@@H]3CN(C)Cc4c(Cl)cc(Cl)cc43)cc2)c(=O)c1=O)C(C)C [Example 32] | 680 nM | 160 to 190 °C |
| CCCN(C)c1c(Nc2cccc([C@@H]3CN(C)Cc4c(Cl)cc(Cl)cc43)c2)c(=O)c1=O [Example 33] | 31 nM | 135 to 140 °C |
| CN1Cc2c(Cl)cc(Cl)cc2[C@H](c2cccc(Nc3c(N4CCCC4)c(=O)c3=O)c2)C1 [Example 34, 6,8-dichloro-2-methyl-4(S)-[3N-(2-N-pyrrolidino-3,4-dioxocyclobuten-1-yl)amino]phenyl-1,2,3,4-tetrahydroisoquinoline] | 52 nM | 138 to 143 °C |
| CN1Cc2c(Cl)cc(Cl)cc2[C@H](c2ccc(Nc3c(N4CCCC4)c(=O)c3=O)cc2)C1 [Example 36, 6,8-dichloro-2-methyl-4(S)-[4N-(2-N-pyrrolidino-3,4-dioxocyclobuten-1-yl)amino]phenyl-1,2,3,4-tetrahydroisoquinoline] | 230 nM | 264 to 270 °C |
| CN1Cc2c(Cl)cc(Cl)cc2C(c2ccccc2Nc2c(NCc3cccnc3)c(=O)c2=O)C1 (stereo not shown) [Example 52, 6,8-dichloro-2-methyl-4-[2N-(2N-(3-picolylmethyl)amino-3,4-dioxocyclobuten-1-yl)amino]phenyl-1,2,3,4-tetrahydroisoquinoline] |  | 244 to 246 °C |
| CNc1c(Nc2ccc(C3CN(C)Cc4c(Cl)cc(Cl)cc43)cc2)c(=O)c1=O (stereo not shown) [Example 53, 6,8-dichloro-2-methyl-4-[4N-(2N-methylamino-3,4-dioxocyclobuten-1-yl)amino]phenyl-1,2,3,4-tetrahydroisoquinoline] |  | 328 to 334 °C |
| CN1Cc2c(Cl)cc(Cl)cc2C(c2ccc(Nc3c(NC4CCCC4)c(=O)c3=O)cc2)C1 (stereo not shown) [Example 54] |  | 300 to 304 °C |
| CC(C)Nc1c(Nc2ccc(C3CN(C)Cc4c(Cl)cc(Cl)cc43)cc2)c(=O)c1=O (stereo not shown) [Example 55, 6,8-dichloro-2-methyl-4-[4N-(2N-isopropylamino-3,4-dioxocyclobuten-1-yl)amino]phenyl-1,2,3,4-tetrahydroisoquinoline] |  | 268 to 272 °C |
| CN1Cc2c(Cl)cc(Cl)cc2C(c2ccc(Nc3c(NCc4ccco4)c(=O)c3=O)cc2)C1 (stereo not shown) [Example 56, 6,8-dichloro-2-methyl-4-[4N-(2N-(2-furylmethyl)amino-3,4-dioxocyclobuten-1-yl)amino]phenyl-1,2,3,4-tetrahydroisoquinoline] |  | 264 to 268 °C |
| CN(C)CCNc1c(Nc2ccc(C3CN(C)Cc4c(Cl)cc(Cl)cc43)cc2)c(=O)c1=O (stereo not shown) [Example 57] |  | 262 to 266 °C |
| CCCCCCNc1c(Nc2ccc(C3CN(C)Cc4c(Cl)cc(Cl)cc43)cc2)c(=O)c1=O (stereo not shown) [Example 58] |  | 234 to 238 °C |
| CN1Cc2c(Cl)cc(Cl)cc2C(c2ccc(Nc3c(NCc4cccnc4)c(=O)c3=O)cc2)C1 (stereo not shown) [Example 59] |  | 288 to 290 °C |
| CNc1c(Nc2cccc(C3CN(C)Cc4c(Cl)cc(Cl)cc43)c2)c(=O)c1=O (stereo not shown) [Example 60] |  | 295 to 298 °C |
| CN1Cc2c(Cl)cc(Cl)cc2C(c2cccc(Nc3c(NC4CCCC4)c(=O)c3=O)c2)C1 (stereo not shown) [Example 63, 6,8-dichloro-2-methyl-4-[3N-(2-cyclopentylamino-3,4-dioxocyclobuten-1-yl)amino]phenyl-1,2,3,4-tetrahydroisoquinoline] |  | 248 to 252 °C |
| CC(C)Nc1c(Nc2cccc(C3CN(C)Cc4c(Cl)cc(Cl)cc43)c2)c(=O)c1=O (stereo not shown) [Example 64] |  | 240 to 244 °C |
| CN(C)CCNc1c(Nc2cccc(C3CN(C)Cc4c(Cl)cc(Cl)cc43)c2)c(=O)c1=O (stereo not shown) [Example 65] |  | 198 to 200 °C |
